Source: US9643967B2, “Pyrrolo[3,2-c]pyridine derivatives as TLR inhibitors” (TAKEDA PHARMACEUTICAL COMPANY LIMITED, priority 2013, dated 2017)

Target: T1, hTLR9 (Homo sapiens, UniProt Q9NR96)
T1 construct: expressed in transfected cells; host or cells: HEK-Blue-hTLR9 cells (HEK293)
T1 sequence (Q9NR96 26-1032): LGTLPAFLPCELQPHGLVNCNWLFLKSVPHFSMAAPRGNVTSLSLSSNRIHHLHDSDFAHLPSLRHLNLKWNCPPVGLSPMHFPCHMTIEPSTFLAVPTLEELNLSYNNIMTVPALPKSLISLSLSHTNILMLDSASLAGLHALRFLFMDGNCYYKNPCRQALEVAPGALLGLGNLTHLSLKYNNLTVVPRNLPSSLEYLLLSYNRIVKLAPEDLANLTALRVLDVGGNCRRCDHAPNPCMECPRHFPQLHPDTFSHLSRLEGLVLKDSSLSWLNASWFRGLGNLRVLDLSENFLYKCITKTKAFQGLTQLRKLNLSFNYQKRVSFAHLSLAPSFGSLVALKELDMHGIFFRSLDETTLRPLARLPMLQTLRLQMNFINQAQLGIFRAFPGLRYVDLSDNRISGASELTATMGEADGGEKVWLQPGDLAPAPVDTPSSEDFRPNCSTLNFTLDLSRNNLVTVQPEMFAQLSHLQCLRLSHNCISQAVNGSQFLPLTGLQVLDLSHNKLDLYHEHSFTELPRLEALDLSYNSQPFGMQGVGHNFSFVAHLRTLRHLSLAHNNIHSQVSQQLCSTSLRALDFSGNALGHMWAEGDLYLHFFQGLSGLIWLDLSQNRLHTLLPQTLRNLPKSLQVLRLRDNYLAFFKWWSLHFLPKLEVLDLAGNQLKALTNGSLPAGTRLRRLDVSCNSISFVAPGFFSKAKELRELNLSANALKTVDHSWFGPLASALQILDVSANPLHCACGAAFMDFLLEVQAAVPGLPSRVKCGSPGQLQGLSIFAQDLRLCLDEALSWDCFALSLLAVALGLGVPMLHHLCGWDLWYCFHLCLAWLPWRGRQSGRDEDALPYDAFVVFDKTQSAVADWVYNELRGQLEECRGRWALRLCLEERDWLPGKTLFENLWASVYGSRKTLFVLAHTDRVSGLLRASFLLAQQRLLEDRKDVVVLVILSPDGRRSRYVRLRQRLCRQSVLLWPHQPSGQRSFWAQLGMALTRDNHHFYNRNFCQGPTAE
Experiment: hTLR9 antagonism (SEAP inhibition assay) in HEK-Blue-hTLR9 (HEK293) cells, ODN-2006 stimulated
Assay type: cell-based
Settings: HEK-Blue hTLR9, 1 μM; SEAP, HEK-Blue-hTLR9 cells; read-out: hTLR9 inhibitory activity (% at 1 μM)
Protocol: hTLR9 Antagonism (SEAP Inhibition Assay) in HEK293 Cell Lines
The SEAP reporter gene in HEK-Blue™-hTLR9 cells is placed under the control of the IFN-b minimal promoter fused to five NF-kB and AP-1 binding sites. The stimulation with a TLR9 ligand (ODN-2006) activates NF-kB and AP-1 which induces the production of SEAP. Levels of SEAP are determined with QUANTI-Blue™ detection medium that turns purple/blue in the presence of alkaline phosphatase. Decrease in the levels of SEAP production as indicated by reduction in absorbance at 650 nm is directly co-related with the TLR9 inhibitory activity of the antagonist (NCE).
HEK-Blue™-hTLR9 cells were maintained in DMEM with 10% FBS, 1% Penicillin/Streptomycin/Amphotericin (complete growth medium) and 0.2% Normocin. For the assay, cells were dissociated by washing in 1×PBS and re-suspended in complete DMEM. Cells were seeded at a density of 20000 cells per well; (40 μl per well) in a 384 well assay plate.
5 μl of 10× antagonist (NCE) was added to the cells in triplicates for each concentration. The plate was incubated for half an hour at 37° C. with 5% CO2. 5 μl of agonist (ODN-2006) was added and the plate was incubated overnight for 18 hours at 37° C. with 5% CO2. 5 μl of supernatant was transferred to a 384 well reading plate and to this 45 μl of Quanti-Blue™ detection reagent was added. The plate was then incubated for an hour at 37° C. SEAP activity in the supernatant was indicated by change in the pink color of Quanti-Blue™ detection reagent to purple/blue and the absorbance was read at 650 nm in the end point mode.

Row | inhibition at 1 µM | Structure (SMILES)
1 | 100% | Cc1cc2[nH]c(CCN3CCOCC3)cc2c(-c2ccc(N3CCN(C(C)C)CC3)cc2)n1 [Example B3, 4-[2-[4-[4-(4-isopropylpiperazin-1-yl)phenyl]-6-methyl-1H-pyrrolo[3,2-c]pyridin-2-yl]ethyl]morpholine]
2 | 99.7% | COc1cc(-c2nc(C)cc3c2cc(CCN2CCOCC2)n3C)ccc1N1CCN(C(C)C)CC1 [Example B22, 4-[2-[4-[4-(4-isopropylpiperazin-1-yl)-3-methoxy-phenyl]-1,6-dimethyl-pyrrolo[3,2-c]pyridin-2-yl]ethyl]morpholine]
3 | 79.7% | Cc1nc(-c2ccc(N3CCN(C(C)C)CC3)cc2)c2cc(CCN3CCOCC3)[nH]c2c1C [Example B6, 4-[2-[4-[4-(4-isopropylpiperazin-1-yl)phenyl]-6,7-dimethyl-1H-pyrrolo[3,2-c]pyridin-2-yl]ethyl]morpholine]
4 | 94.7% | Cc1cc2[nH]c(CCCN3CCCCC3)cc2c(-c2ccc(N3CCN(C(C)C)CC3)cc2)n1 [Example C5, 4-[4-(4-isopropylpiperazin-1-yl)phenyl]-6-methyl-2-[3-(1-piperidyl)propyl]-1H-pyrrolo[3,2-c]pyridine]
5 | 100% | CN1CCN(c2ccc(-c3nccc4[nH]c(CCN5CCOCC5)cc34)cc2)CC1 [Example B2, 4-[2-[4-[4-(4-methylpiperazin-1-yl)phenyl]-1H-pyrrolo[3,2-c]pyridin-2-yl]ethyl]morpholine]
6 | 91% | Cc1cc2c(cc(CCN3CCOCC3)n2C)c(-c2ccc(N3CCN(C(C)C)CC3)c(C)c2)n1 [Example B16, 4-[2-[4-[4-(4-isopropylpiperazin-1-yl)-3-methyl-phenyl]-1,6-dimethyl-pyrrolo[3,2-c]pyridin-2-yl]ethyl]morpholine]
7 | 100% | COc1cc(N2CCN(C(C)C)CC2)ccc1-c1nc(C)cc2c1cc(CCN1CCOCC1)n2C [Example B20, 4-[2-[4-[4-(4-isopropylpiperazin-1-yl)-2-methoxy-phenyl]-1,6-dimethyl-pyrrolo[3,2-c]pyridin-2-yl]ethyl]morpholine]
8 | 94.8% | Cc1cc2[nH]c(CCCN3CCOCC3)cc2c(-c2ccc(N3CCN(C(C)C)CC3)cc2)n1 [Example C3, 4-[3-[4-[4-(4-isopropylpiperazin-1-yl)phenyl]-6-methyl-1H-pyrrolo[3,2-c]pyridin-2-yl]propyl]morpholine]
9 | 100% | CN1CCN(c2ccc(-c3nccc4[nH]c(CCCN5CCOCC5)cc34)cc2)CC1 [Example C2, 4-[3-[4-[4-(4-methylpiperazin-1-yl)phenyl]-1H-pyrrolo[3,2-c]pyridin-2-yl]propyl]morpholine]
10 | 99.2% | CC(C)N1CCN(c2ccc(-c3nccc4[nH]c(CCCN5CCOCC5)cc34)cc2)CC1 [Example C1, 4-[3-[4-[4-(4-isopropylpiperazin-1-yl)phenyl]-1H-pyrrolo[3,2-c]pyridin-2-yl]propyl]morpholine]

Further lines, the compound ahead of its results:

Row | Structure (SMILES) | inhibition at 1 µM
11 | Cc1cc2c(cc(CN3CCOCC3)n2C)c(-c2ccc(N3CCN(C(C)C)CC3)cc2)n1 [Example A35, 4-[[4-[4-(4-isopropylpiperazin-1-yl]phenyl]-1,6-dimethyl-pyrrolo[3,2-c]pyridin-2-yl]methyl] morpholine] | 96.3%
12 | CC(C)N1CCN(c2ccc(-c3nccc4[nH]c(CN5CCC[C@@H]5C(=O)O)cc34)cc2)CC1 [Example A74, (2R)-1-[[4-[4-(4-isopropylpiperazin-1-yl)phenyl]-1H-pyrrolo[3,2-c]pyridin-2-yl]methyl]pyrrolidine-2-carboxylic acid] | 89.4%
13 | c1cc2[nH]c(CN3CCOCC3)cc2c(-c2ccc(N3CCN(C4COC4)CC3)cc2)n1 [Example A81, 4-[[4-[4-[4-(oxetan-3-yl)piperazin-1-yl]phenyl]-1H-pyrrolo[3,2-c]pyridin-2-yl]methyl]morpholine] | 64%
14 | CCN1CCN(c2ccc(-c3nccc4[nH]c(CN5CCOCC5)cc34)cc2)CC1 [Example A3, 4-[[4-[4-(4-ethylpiperazin-1-yl)phenyl]-1H-pyrrolo[3,2-c]pyridin-2-yl]methyl] morpholine] | 100%
15 | CN1CCC(n2cc(-c3nccc4[nH]c(CN5CCOCC5)cc34)cn2)CC1 [Example A63, 4-[[4-[1-(1-methyl-4-piperidyl)pyrazol-4-yl]-1H-pyrrolo[3,2-c]pyridin-2-yl]methyl]morpholine] | 93.4%
16 | Cc1cc2[nH]c(CN3CCOCC3)cc2c(-c2ccc(C3CCN(C(C)C)CC3)cc2)n1 [Example A51, 4-[[4-[4-(1-isopropyl-4-piperidyl)phenyl]-6-methyl-1H-pyrrolo[3,2-c]pyridin-2-yl]methyl]morpholine] | 100%
17 | CN1CCN(c2ccc(-c3nccc4[nH]c(CN5CCOCC5)cc34)cc2)CC1 [Example A2, 4-[[4-[4-(4-methylpiperazin-1-yl)phenyl]-1H-pyrrolo[3,2-c]pyridin-2-yl]methyl] morpholine] | 100%
18 | CC(C)N1CCN(Cc2ccc(-c3nccc4[nH]c(CN5CCOCC5)cc34)cc2)CC1 [Example A55, 4-[[4-[4-[(4-isopropylpiperazin-1-yl)methyl]phenyl]-1H-pyrrolo[3,2-c]pyridin-2-yl]methyl]morpholine] | 96.5%
19 | Cc1nc(-c2ccc(N3CCN(C(C)C)CC3)cc2)c2cc(CN3CCCC3)[nH]c2c1C [Example A40, 4-[4-(4-isopropylpiperazin-1-yl)phenyl]-6,7-dimethyl 2-(pyrrolidin-1-ylmethyl)-1H-pyrrolo[3,2-c)pyridine] | 80%
20 | CC(C)N1CCN(c2ccc(-c3nccc4c3cc(CN3CCOCC3)n4C)cc2)CC1 [Example A8, 4-[[4-[4-(4-isopropylpiperazin-1-yl)phenyl]-1-methyl-pyrrolo[3,2-c]pyridin-2-yl]methyl] morpholine] | 100%
21 | CC(C)N1CCN(c2ccc(-c3nccc4[nH]c(CN5CCC(F)CC5)cc34)cc2)CC1 [Example A24, 2-[(4-fluoro-1-piperidyl)methyl]-4-[4-(4-isopropylpiperazin-yl)phenyl]-1H-pyrrolo[3,2-c] pyridine] | 95.1%
22 | CN1CCN(c2ccc(-c3nccc4c3cc(CN3CCOCC3)n4C)cc2)CC1 [Example A9, 4-[[1-methyl-4-[4-(4-methylpiperazin-1-yl)phenyl]pyrrolo[3,2-c]pyridin-2-yl]methyl] morpholine] | 100%
23 | Cc1nc(-c2ccc(N3CCN(C(C)C)CC3)cc2)c2cc(CN3CCOCC3)[nH]c2c1C [Example A36, 4-[[4-[4-(4-isopropylpiperazin-1-yl)phenyl]-6,7-dimethyl-1H-pyrrolo[3,2-c]pyridin-2-yl]methyl] morpholine] | 96.7%
24 | CC(C)N1CCN(c2ccc(-c3nc(C4CC4)cc4[nH]c(CN5CCOCC5)cc34)cc2)CC1 [Example A33, 4-[[6-cyclopropyl-4-[4-(4-isopropylpiperazin-1-yl)phenyl]-1H-pyrrolo[3,2-c]pyridin-2-yl]methyl] morpholine] | 90.4%
25 | CC(C)N1CCN(c2ccc(-c3nccc4[nH]c(CN5CC(F)C5)cc34)cc2)CC1 [Example A16, 2-[(3-fluoroazetidin-1-yl)methyl]-4-[4-(4-isopropylpiperazin-1-yl)phenyl]-1H-pyrrolo[3,2-c]pyridine] | 100%
